Read-outs that look alike come from different tables or passages of the source.
Assays:
HIV-1 integrase = HIV-1 integrase (Human immunodeficiency virus type 1 group M subtype B, UniProt P12497); assay: biochemical; type: biochemical
Experimental: In Vitro Integrase Assay.
Integrase reactions were carried out by adding drugs or an equivalent volume of 100% dimethyl sulfoxide (DMSO; used as the drug solvent) to a mixture of 20 nM DNA and 400 nM integrase in 50 mM morpholinepropanesulfonic acid (pH 7.2), 7.5 mM MgCl2, and 14 mM 2-mercaptoethanol. Reactions were performed at 37° C. for 2 h and quenched by the addition of an equal volume of loading buffer (formamide containing 1% sodium dodecyl sulfate, 0.25% bromophenol blue, and xylene cyanol). […] Dried gels were visualized using a Typhoon 8600 (GE Healthcare, Piscataway, N.J.). Densitometric analyses were performed using ImageQuant 5.1 software from GE Healthcare.

in vitro = type: cell-based, human; details: human, 50% reduction in the level of ATP in HOS cells
Experimental: Cellular Cytotoxicity Assay.
On the day of the screen, cells were treated with compounds at the appropriate concentration range chosen and incubated at 37° C. for 48 hrs. Cytotoxicity was measured by monitoring ATP levels via a luciferase reporter assay. Cells were lysed in 50 μL cell lysis buffer (PerkinElmer, Waltham, Mass.) and shaken at 700 rpm at room temperature for 5 mins After the addition of 50 μL of ATPlite buffer (PerkinElmer) directly onto the lysed cells and shaking at 700 rpm at room temperature for 5 mins, ATP levels were monitored by measuring luciferase activity using a microplate reader. Activity was normalized to cytotoxicity in the absence of target compounds. KaleidaGraph (Synergy Software, Reading, Pa.) was used to perform regression analysis on the data. CC50 values were determined from the fit model.

[1] = test system: HIV-1 constructs containing wild-type IN; assay: microbe, parasite or virus in culture; type: cell-based; details: for EC50: Human immunodeficiency virus 1, WT IN, read-out: EC50 (nM, WT)
From the text: (§1) Single-Round HIV-1 Infectivity Assay.
(§2) Human embryonyl kidney cell culture cell line 293 was acquired from the American type Culture Collection (ATCC).
(§3) The virus-containing supernatants were then harvested, clarified by low-speed centrifugation, filtrated, and diluted for preparation in infection assays. […] Activity was normalized to infectivity in the absence of target compounds. KaleidaGraph (Synergy Software, Reading, Pa.) was used to perform regression analysis on the data. EC50 values were determined from the fit model.

[2] = test system: HIV-1 constructs containing mutant IN Y143R; assay: microbe, parasite or virus in culture; type: cell-based; details: Human immunodeficiency virus 1, read-out: EC50 (nM, IN Mutants) Y143R
From the text: as §1, §2, §3
(§4) pNLNgoMIVR^−ΔEnv.LUC has been described previously (Zhao et al. 2008). The integrase codon reading frame was removed from pNLNgoMIVR^−ΔEnv LUC (between KpnI and SalI sites) and placed between the KpnI and SalI sites of pBluescript II KS+. Using that construct as the wild-type template, we prepared the following HIV-1 Integrase-resistant mutants via the QuikChange II XL (Stratagene, La Jolla, Calif.) site-directed mutagenesis protocol: H51Y, T66I, E92Q, G118R, Y143R, Q148H, Q148K, N155H, R263K, G140S+Q148H, G140A+Q148K, E138K+Q148K, and H51Y+R263K. The following sense with cognate antisense (not shown) oligonucleotides (Integrated DNA Technologies, Coralville, Iowa) were used in the mutagenesis: H51Y, 5′-[…]-3; T66I, 5′-[…]-3′; E92Q, 5′-[…]-3′; G118R, 5′-[…]-3′; E138K, 5′-[…]-3; G140A, 5′-[…]-3; G140S, 5′-[…]-3′; Y143R, 5′-[…]-3′; Q148H, 5′-[…]-3′; Q148K, 5′-[…]-3; N155H, 5′-[…]-3′; R263K 5′-[…]-3′. The double mutation G140S+Q148H was constructed by using the previously generated Q148H mutant and the appropriate oligonucleotide for the 2nd mutation, G140S. The double mutation G140A+Q148K was made by using the Q148K mutant and the appropriate oligonucleotide for the 2nd mutation, G140A. The double mutation E138K+Q148K was made by using the Q148K mutant and the appropriate oligonucleotide for the 2nd mutation, E138K. The double mutation H51Y+R263K was constructed by using the previously generated H51Y mutant and the appropriate oligonucleotides for the 2nd mutation, R263K. The DNA sequence of each construct was verified independently by DNA sequence determination. […] These DNA sequences were additionally checked independently by DNA sequence determination.

[3] = test system: HIV-1 constructs containing mutant IN N155H; assay: microbe, parasite or virus in culture; type: cell-based; details: Human immunodeficiency virus 1; Table 3; read-out: EC50 (nM, IN Mutants) N155H
From the text: as §1, §2, §3, §4

[4] = read-out: IC50 (3^+-Processing)
[5] = read-out: IC50 (Strand Transfer)
[6] = Table 4, 3′-processing, read-out: IC50 (3^+-Processing)
[7] = Table 4, strand transfer, read-out: IC50 (Strand Transfer)

| SMILES | IC50 (HIV-1 integrase; [4]) [nM] | IC50 (HIV-1 integrase; [5]) [nM] | CC50 (in vitro; Table 3) [nM] | EC50 ([1]; Table 3) [nM] | IC50 (HIV-1 integrase; [6]) [nM] | IC50 (HIV-1 integrase; [7]) [nM] | also measured |
| --- | --- | --- | --- | --- | --- | --- | --- |
| CNc1c(C(=O)NCc2ccc(F)cc2F)c(=O)n(O)c2ncccc12 [XZ371, N-(2,4-difluorobenzyl)-1-hydroxy-4-(methylamino)-2-oxo-1,2-dihydro-1,8-naphthyridine-3-carboxamide] | 3700 ± 400 | 27 ± 4 | > 250000 | 3.1 ± 0.6 |  |  |  |
| COC(=O)[C@H](CO)Nc1c(C(=O)NCc2ccc(F)cc2F)c(=O)n(O)c2ncccc12 [XZ398, (S)-methyl 2-((3-((2,4-difluorobenzyl)carbamoyl)-1-hydroxy-2-oxo-1,2-dihydro-1,8-naphthyridin-4-yl)amino)-3-hydroxypropanoate] | 5800 ± 500 | 8.4 ± 3.2 | > 250000 | 9.7 ± 3 |  |  |  |
| COc1ccc2c(O)c(C(=O)NCc3ccc(F)cc3F)c(=O)n(O)c2n1 [XZ405, N-(2,4-difluorobenzyl)-1,4-dihydroxy-7-methoxy-2-oxo-1,2-dihydro-1,8-naphthyridine-3-carboxamide] |  |  |  |  | 32000 ± 4000 | 33 ± 5 | CC50 (in vitro; Table 5): 12100 ± 4600 nM; EC50 ([1]; Table 5): 186 ± 23.2 nM; SI ([1]; Table 5, ratio of CC50 to EC50): 65; EC50 ([2]; Table 5): 215 ± 31 nM |
| CC(C)Nc1c(C(=O)NCc2ccc(F)cc2F)c(=O)n(O)c2ncccc12 [XZ381, N-(2,4-difluorobenzyl)-1-hydroxy-4-(isopropylamino)-2-oxo-1,2-dihydro-1,8-naphthyridine-3-carboxamide] | 1800 ± 200 | 16 ± 4 | > 250000 | 7.2 ± 3 |  |  |  |
| O=C(NCc1ccc(F)cc1F)c1c(Nc2ccc3c(c2)Cc2ccccc2-3)c2cccnc2n(O)c1=O [XZ386, 4-((9H-fluoren-2-yl)amino)-N-(2,4-difluorobenzyl)-1-hydroxy-2-oxo-1,2-dihydro-1,8-naphthyridine-3-carboxamide] |  |  | > 250000 | 171 ± 56.8 | 46000 ± 8000 | 840 ± 210 | Si (selectivity index) ([1]; Table 3, ratio of CC50 to EC50): >1,462; EC50 ([2]; Table 3): 448 ± 28.1 nM |
| COC(=O)[C@@H](CO)Nc1c(C(=O)NCc2ccc(F)cc2F)c(=O)n(O)c2ncccc12 [XZ399, (R)-methyl 2-((3-((2,4-difluorobenzyl)carbamoyl)-1-hydroxy-2-oxo-1,2-dihydro-1,8-naphthyridin-4-yl)amino)-3-hydroxypropanoate] | 4400 ± 500 | 13 | > 250000 | 14.2 ± 3.71 |  |  |  |
| COC(=O)[C@@H](Nc1c(C(=O)NCc2ccc(F)cc2F)c(=O)n(O)c2ncccc12)c1ccccc1 [XZ396, (S)-methyl 2-((3-((2,4-difluorobenzyl)carbamoyl)-1-hydroxy-2-oxo-1,2-dihydro-1,8-naphthyridin-4-yl)amino)-2-phenylacetate] |  |  | > 250000 |  |  |  |  |
| O=C(NCc1ccc(F)cc1F)c1c(NCCc2ccccc2)c2cccnc2n(O)c1=O [XZ382, N-(2,4-difluorobenzyl)-1-hydroxy-2-oxo-4-(phenethylamino)-1,2-dihydro-1,8-naphthyridine-3-carboxamide] | 8000 ± 1500 | 50 ± 12 | > 250000 | 14.1 ± 7.9 |  |  |  |
| COC(=O)[C@H](C)Nc1c(C(=O)NCc2ccc(F)cc2F)c(=O)n(O)c2ncccc12 [XZ394, (S)-methyl 2-((3-((2,4-difluorobenzyl)carbamoyl)-1-hydroxy-2-oxo-1,2-dihydro-1,8-naphthyridin-4-yl)amino)propanoat] |  |  | > 250000 | 4.2 ± 1.6 |  |  |  |
| NCc1ccc(-c2ccc(Nc3c(C(=O)NCc4ccc(F)cc4F)c(=O)n(O)c4ncccc34)cc2)cc1 [XZ389, 4-((4′-(aminomethyl)-[1,1′-biphenyl]-4-yl)amino)-N-(2,4-difluorobenzyl)-1-hydroxy-2-oxo-1,2-dihydro-1,8-naphthyridine-3-carboxamide] |  |  | 414 | 411 ± 30 | > 333000 | 29000 ± 13000 |  |
| N#Cc1ccc(-c2ccc(Nc3c(C(=O)NCc4ccc(F)cc4F)c(=O)n(O)c4ncccc34)cc2)cc1 [XZ388, 4-((4′-cyano-[1,1′-biphenyl]-4-yl)amino)-N-(2,4-difluorobenzyl)-1-hydroxy-2-oxo-1,2-dihydro-1,8-naphthyridine-3-carboxamide] |  |  | > 250000 | 123 ± 20.7 | 70000 ± 7000 | 130 ± 30 | Si (selectivity index) ([1]; Table 3, ratio of CC50 to EC50): >2,033; EC50 ([2]; Table 3): 346 ± 38.3 nM |
| CCCCCNc1c(C(=O)NCc2ccc(F)cc2F)c(=O)n(O)c2ncccc12 [XZ380, N-(2,4-difluorobenzyl)-1-hydroxy-2-oxo-4-(pentylamino)-1,2-dihydro-1,8-naphthyridine-3-carboxamide] | 8200 ± 1600 | 24 ± 9 | 94200 ± 24400 | 7.4 ± 1.4 |  |  |  |
| NCCNc1c(C(=O)NCc2ccc(F)cc2F)c(=O)n(O)c2ncccc12 [XZ403, 4-((2-aminoethyl)amino)-N-(2,4-difluorobenzyl)-1-hydroxy-2-oxo-1,2-dihydro-1,8-naphthyridine-3-carboxamide] | 4500 ± 200 | 39 ± 6 | 9600 ± 3700 | 34.7 ± 10.5 |  |  |  |
| CCOC(=O)[C@@H]1CCCN1c1c(C(=O)NCc2ccc(F)cc2F)c(=O)n(O)c2ncccc12 [XZ404, (S)-ethyl 1-(3-((2,4-difluorobenzyl)carbamoyl)-1-hydroxy-2-oxo-1,2-dihydro-1,8-naphthyridin-4-yl)pyrrolidine-2-carboxylate] |  |  | 18200 ± 7100 | 590 ± 71.8 | 86000 ± 6000 | 310 ± 40 | Si (selectivity index) ([1]; Table 3, ratio of CC50 to EC50): 31; EC50 ([2]; Table 3): 1660 ± 920 nM |
| O=C(NCc1ccc(F)cc1F)c1c(Nc2ccc(-c3ccccc3)cc2)c2cccnc2n(O)c1=O [XZ385, 4-([1,1′-biphenyl]-4-ylamino)-N-(2,4-difluorobenzyl)-1-hydroxy-2-oxo-1,2-dihydro-1,8-naphthyridine-3-carboxamide] |  |  | > 250000 | 372 ± 63 | 52000 ± 5000 | 340 ± 80 | Si (selectivity index) ([1]; Table 3, ratio of CC50 to EC50): >673; EC50 ([2]; Table 3): 361 ± 84 nM |
| COC(=O)[C@H](Nc1c(C(=O)NCc2ccc(F)cc2F)c(=O)n(O)c2ncccc12)c1ccccc1 [XZ397, (R)-methyl 2-((3-((2,4-difluorobenzyl)carbamoyl)-1-hydroxy-2-oxo-1,2-dihydro-1,8-naphthyridin-4-yl)amino)-2-phenylacetate] |  |  | > 250000 | 7.4 ± 3.3 |  |  | EC50 [3]: 21.6 ± 3.7 nM |

From patent US9676771B2, “Compounds for inhibiting drug-resistant strains of HIV-1 integrase” (priority 2013, dated 2017)
